{"source": "paper PMC7398594", "about": "(Neurotoxicology, 2020)", "format_in_all_cases": "cell-based, mouse", "key": {"[1]": {"system": "HEI-OC1 cells", "assay": "MTT cellular viability assay", "conditions": "HEI-OC1 cell culture, ± standard deviation"}, "[2]": {"system": "HEI-OC1 cells", "assay": "Reactive oxygen species assay", "conditions": "24 hours, treated at compound IC50 value"}, "[3]": {"system": "HEI-OC1 cells", "assay": "Mitochondrial membrane potential assay", "conditions": "treated at compound IC50 value"}, "[4]": {"system": "caspase-3/7 activity in HEI-OC1 cells", "assay": "Caspase-3/7 luminescence assay", "conditions": "treated at compound IC50 value"}}, "data": [{"smiles": "N.N.[Cl][Pt][Cl]", "note": "[cisplatin]", "values": [{"measurement": "IC50", "setting": "[1]; 24 Hr treatment", "result": "1660 ± 330", "unit": "nM"}, {"measurement": "IC50", "setting": "[1]; 48 Hr treatment", "result": "4520 ± 170", "unit": "nM"}, {"measurement": "ROS yield, % of negative control", "setting": "[2]", "result": 751, "unit": "%"}, {"measurement": "mitochondrial membrane polarization (FL1 to FL3 ratio), % of negative control", "setting": "[3]; 24 hours", "result": 109, "unit": "%"}, {"measurement": "mitochondrial membrane polarization (FL1 to FL3 ratio), % of negative control", "setting": "[3]; 48 hours", "result": 110, "unit": "%"}, {"measurement": "caspase-3/7 activity, % of negative control", "setting": "[4]; 24 hours", "result": 86, "unit": "%"}, {"measurement": "caspase-3/7 activity, % of negative control", "setting": "[4]; 48 hours", "result": 352, "unit": "%"}]}, {"smiles": "[NH3+][Pt-2]([NH3+])([Cl])[n+]1cc2ccccc2c2ccccc21", "note": "(stereo not drawn) [phenanthriplatin, cis-diammine (phenanthridine) chloroplatinum(II)]", "values": [{"measurement": "IC50", "setting": "[1]; 24 Hr treatment", "result": "1640 ± 190", "unit": "nM"}, {"measurement": "IC50", "setting": "[1]; 48 Hr treatment", "result": "2310 ± 290", "unit": "nM"}, {"measurement": "ROS yield, % of negative control", "setting": "[2]", "result": 741, "unit": "%"}, {"measurement": "mitochondrial membrane polarization (FL1 to FL3 ratio), % of negative control", "setting": "[3]; 24 hours", "result": 98, "unit": "%"}, {"measurement": "mitochondrial membrane polarization (FL1 to FL3 ratio), % of negative control", "setting": "[3]; 48 hours", "result": 88, "unit": "%"}, {"measurement": "caspase-3/7 activity, % of negative control", "setting": "[4]; 24 hours", "result": 83, "unit": "%"}, {"measurement": "caspase-3/7 activity, % of negative control", "setting": "[4]; 48 hours", "result": 89, "unit": "%"}]}, {"smiles": "[NH3+][Pt-2]([NH3+])([Cl])[n+]1ccccc1", "note": "(stereo not drawn) [pyriplatin, cis-diammine (pyridine) chloroplatinum(II)]", "values": [{"measurement": "IC50", "setting": "[1]; 24 Hr treatment", "result": "11100 ± 280", "unit": "nM"}, {"measurement": "IC50", "setting": "[1]; 48 Hr treatment", "result": "2520 ± 110", "unit": "nM"}, {"measurement": "ROS yield, % of negative control", "setting": "[2]", "result": 618, "unit": "%"}, {"measurement": "mitochondrial membrane polarization (FL1 to FL3 ratio), % of negative control", "setting": "[3]; 24 hours", "result": 101, "unit": "%"}, {"measurement": "mitochondrial membrane polarization (FL1 to FL3 ratio), % of negative control", "setting": "[3]; 48 hours", "result": 90, "unit": "%"}, {"measurement": "caspase-3/7 activity, % of negative control", "setting": "[4]; 24 hours", "result": 82, "unit": "%"}, {"measurement": "caspase-3/7 activity, % of negative control", "setting": "[4]; 48 hours", "result": 101, "unit": "%"}]}]}
